Experimental data from patent US7786046B2, “Benzoyl-substituted serineamides” (BASF Aktiengesellschaft, priority 2005, dated 2010).

melting point	SMILES
212 °C	CNC(=O)C(NC(=O)c1ccc(F)cc1C(F)(F)F)C(O)C(F)(F)F (racemic) [Compound 3.1, 4-Fluoro-N-(3,3,3-trifluoro-2-hydroxy-1-methylcarbamoylpropyl)-2-trifluoromethylbenzamide]
163 °C	C=CC(O)C(NC(=O)c1ccc(F)cc1C(F)(F)F)C(=O)NC (racemic) [Compound 3.3, N-(2-Hydroxy-1-methylcarbamoylbut-3-enyl)-4-fluoro-2-trifluoromethylbenzamide]
140 °C	CNC(=O)C(NC(=O)c1ccc(F)cc1C(F)(F)F)C(O)/C(Cl)=C/c1ccccc1 (racemic) [Compound 3.7, N-(3-Chloro-2-hydroxy-1-methylcarbamoyl-4-phenylbut-3-enyl)-4-fluoro-2-trifluoromethylbenzamide]
163 °C	CNC(=O)C(NC(=O)c1ccc(F)cc1C(F)(F)F)C(O)CO (stereo not shown) [Compound 3.8, 2-(4-Fluoro-2-trifluoromethylbenzoylamino)-3,4-dihydroxy-N-methylbutyramide]
